Columns and labels:
[1] = tested on: pancreatic cancer cell lines; settings: cited from earlier work; for de novo CLDN-18.2 expression: CLDN-18.2-negative cell lines; for CLDN-18.2 expression levels: pancreatic cancer cell lines with existing expression
[2] = Apparent pKa of the amino lipid; format: physicochemical
[3] = tested on: locally advanced, unresectable or metastatic pancreatic cancer; settings: erlotinib versus placebo; cited from earlier work
advanced BTC = settings: first-line treatment of advanced disease; cited from earlier work
PDAC = settings: metastasized stage; Conroy et al. 2011; cited from earlier work
[4] = cited from earlier work
[5] = biological target: CLDN-18.2+ NUG-C4 transfectants; assay: In vitro ADCC assay (luciferase-based); format: cell-based, human; settings: human PBMCs from three donors, E:T 30:1, 48 hours
Protocol: RiboMab01-containing cell culture supernatant from CHO-K1 cells lipofected with RB_RMAB01 was subjected to (Panel A) ADCC and (Panel B) CDC assays. […] Human PBMCs of three different healthy donors were utilized as effector cells (E:T ratio 30:1). Target or control and effector cells were incubated for 48 hours with the indicated RiboMab01 and IMAB362 reference protein concentrations. Specific cell lysis as determined in a luciferase-based assay is shown. […] Target and control cells were incubated with human serum and RiboMab01 concentrations as indicated for 2 hours. CDC determined in a luciferase-based assay is shown. Error bars are standard errors of the mean (n=3).
Mode of action analysis: Antibody-dependent cellular cytotoxicity (ADCC) and complement-dependent cytotoxicity (CDC) in vitro. […] To simulate in vivo conditions, human PBMCs from three different healthy donors were used as effector cells in ADCC assays in an effector to target (E:T) ratio of 30:1 and human serum (e.g., commercially available human serum) was used as a source of complement in CDC assays.

[6] = cited from earlier work; remark: listed apart in the source
[7] = tested on: gastric and gastro-esophageal cancer; settings: cited from earlier work
CLDN-18.2+ cells = settings: in serum; Sahin et al. 2018; cited from earlier work
[8] = biological target: first extracellular domain (ECD1) of CLDN-18.2 (Homo sapiens, UniProt P56856); settings: cited from earlier work
MDA-MB-231 cells = assay: Ex vivo ADCC assay with serum of dosed non-human primates, target-negative control cells; format: cell-based; settings: FIG. 5 Panel C dilution row
Protocol: (§1) Non-Human Primates (NHP) received three repetitive doses of 0.1, 0.4 or 1.6 mg/kg RB_RMAB01 once weekly. RiboMab01-containing serum of all monkeys sampled 24 hours (black bars) and 168 hours (white bars) post 1st injection was directed to luciferase-based ex vivo ADCC assays. […] Human PBMCs from two different healthy donors (24 h, donor 1, 168 h, donor 2) served as effector cells. (Panel A) RiboMab01-mediated ADCC of NUG-C4 cells after 48 hours incubation is shown. (Panel B) Unspecific lysis on target-negative MDA-MB-231 cells is shown. Error bars are standard error of the mean (n=3). (Panel C) Serum of NHP No. 14 (1.6 mg/kg RB_RMAB01, RiboMab01 serum concentration 232 μg/mL) collected 48 hours after the 3rd dosing was used for a luciferase-based ex vivo ADCC assays. […] Human PBMCs of a healthy donor served as effector cells. […] Incubation time was 48 hours. Error bars are standard errors of the mean (n=3).
(§2) ADCC assays were performed as described in Example 2. […] Purified IMAB362 served as assay reference protein.

[9] = tested on: CLDN-18.2+ NUG-C4 transfectants; assay: Ex vivo ADCC assay with serum of dosed non-human primates; format: cell-based; settings: serum of monkey No. 14 (1.6 mg/kg) 48 hours after 3rd dosing or recombinant reference protein; 48 hours incubation
Protocol: as §1, §2

[10] = ≥70% CLDN-18.2 expression subset, vs EOX, p<0.0005

O=c1[nH]cc(F)c(=O)[nH]1 [5-fluorouracil]
de novo CLDN-18.2 expression [1]: not observed to increase de novo expression
CLDN-18.2 expression levels [1]: upregulate existing CLDN-18.2 expression levels

CCCCCCC(CCCC)C(=O)OCCCCCCCCCN(CCCO)CCCCCCCCCOC(=O)C(CCCC)CCCCCC (stereo not shown) [Cationic Lipid A, ((3-Hydroxypropyl)azanediyl)bis(nonane-9,1-diyl)bis(2-butyloctanoate)]
pKa [2]: ~6.25

C#Cc1cccc(Nc2ncnc3cc(OCCOC)c(OCCOC)cc23)c1 [erlotinib]
median overall survival (OS) benefit [3]: 0.4 month
median progression-free survival (PFS) benefit [3]: 0.3 month

Nc1ccn([C@@H]2O[C@H](CO)[C@@H](O)C2(F)F)c(=O)n1 [gemcitabine]
de novo CLDN-18.2 expression [1]: not observed to increase de novo expression
CLDN-18.2 expression levels [1]: upregulate existing CLDN-18.2 expression levels
median OS (advanced BTC): 8.1 months

O=C1[O][Pt]2([NH][C@@H]3CCCC[C@H]3[NH]2)[O]C1=O [oxaliplatin]
de novo CLDN-18.2 expression [1]: not observed to increase de novo expression
CLDN-18.2 expression levels [1]: upregulate existing CLDN-18.2 expression levels

FOLFIRINOX
median survival compared to gemcitabine alone (PDAC): nearly double median survival

IMAB362: full IgG1 monoclonal antibody targeting CLDN-18.2; used as recombinant reference protein
cmax ([4]; repeated doses up to 1000 mg/m^2 q3w): up to 603 μg/mL
tolerability across various trials ([4]; single agent and in combination with chemotherapy): well tolerated
ADCC EC50 [5]: 0.014 to 0.265 µg/mL
patients with grade 3 vomiting ([6]; 12 patients, 600 mg/m^2 dose): 22%
patients with fatigue ([6]; TEAE): 22%
patients with nausea ([6]; TEAE): 61%
patients with vomiting ([6]; TEAE): 50%
patients with grade 3 nausea ([6]; eight patients, 600 mg/m^2 dose): 15%
patients with treatment emergent adverse events (TEAEs) ([6]; n=44/54): 82%
change of median overall survival ([7]; patients with ≥70% of tumor cells with ≥2+ CLDN-18.2 staining): near-doubling
benefit in overall survival (OS) [7, 10]: 33.1 weeks
delay in central independent reviewed progression [7, 10]: 14.5 weeks
ADCC EC95 (concentration that gives 95% response) (CLDN-18.2+ cells): 0.3 to 28 µg/mL
binding to other claudin family members including CLDN18.1 [8]: does not bind
recognition of ECD1 of CLDN-18.2 [8]: high affinity and specificity
unspecific lysis on control cells (MDA-MB-231 cells): weak unspecific lysis
EC50 [9]: 0.151 nM
